The values below are quoted from earlier work in patent US8735434B2, “Compounds as cannabinoid receptor ligands” (priority 2007, dated 2014).

One series relates to microglial. The note with it: in vitro.
In a further series the test system is rat. The note with it: rat formalin model of persistent pain.
Series [1] concerns apolipoprotein E knockout mice.
The subject of the next series is animal models. The note with it: acute thermal pain, persistent pain, inflammatory pain, neuropathic pain.
Another series relates to rodent models. The note with it: neuropathic, incisional, chronic and acute inflammatory pain.
The next series concerns mice. The note with it: model for post-menopausal osteoporosis.

On to `CCCC(C)(C)c1ccc2c(c1)OC(C)(C)[C@@H]1CC=C(C)C[C@@H]21` [JWH-133], for which the “effect on β-amyloid-induced microglial activation and neurotoxicity” value with microglial is on record as “abrogated”.
For `CCCCCCC(C)(C)c1cc(OC)c([C@@H]2C=C(CO)[C@@H]3C[C@H]2C3(C)C)c(OC)c1` [HU-308], the antinociceptive response result in the series on rat is recorded as “elicits an antinociceptive response”.
On to (−)-Δ^9-Tetrahydrocannabinol [THC], for which the “progression of atherosclerotic lesions” value in series [1] (low doses) is “slowed the progression of atherosclerotic lesions”.
As to `CN1CCCCC1Cn1cc(C(=O)c2cc([N+](=O)[O-])ccc2I)c2ccccc21` (stereo not drawn) [AM-1241], in the series on animal models, the analgesic efficacy result was “robust analgesic efficacy”.
With `COc1ccc2c(c1)c(CCN1CCOCC1)c(C)n2C(=O)c1cccc(Cl)c1Cl` [GW405833], in the series on rodent models, the “efficacy in pain models” value is given as “efficacious”.
Take SR144528: the “inhibition of the THC effects on atherosclerotic lesions” value in series [1] (against THC) is on record as “these effects were inhibited”. In addition, in the series with osteoclast, the “effect on osteoclast activity” value is on record as “inhibit osteoclast activity”. Also, the “block of the JWH-133 effects on microglial activation and neurotoxicity” value in the series on microglial (against JWH-133) is “can be blocked”. Besides, the “effect on ovariectomy-induced bone loss” value with mice was “reverse ovariectomy-induced bone loss”.
